From article PMC9959553, “Promising Antifungal Molecules against Mucormycosis Agents Identified from Pandemic Response Box®: In Vitro and In Silico Analyses” (Journal of Fungi, 2023)
“And” between values parts separate entries of the source, which are not always exact repeats. Equal entries are not always repeated.

What was measured:
[1] = Cytotoxicity assay (neutral red); format: cell-based; settings: human
Method: (§1) Cytotoxicity of alexidine, MMV1580844, MMV642550 and MMV019724 was performed using three cell lineages: RAW 264.7, a murine macrophage culture; A549, adenocarcinomic human alveolar basal epithelial cells; and HaCaT, a spontaneously transformed aneuploid immortal keratinocyte cell line from adult human skin. Cells were grown in DMEM (Dulbecco’s Modified Eagle’s Medium, Sigma-Aldrich, MO, USA), supplemented with 10% fetal bovine serum and incubated for 48 h at 37 °C with 5% CO2 in the presence of serially diluted concentrations (0.3–50 μM) of each compound. Cell viability was measured using the neutral red (NR) assay and quantified using a spectrophotometer at 595 nm (SpectraMax® i3x, Molecular Devices®, San José, CA, USA).

S. brasiliensis = tested on: S. brasiliensis; parameters: method as in PMID 36294569; settings: cited from earlier work
[2] = Cytotoxicity assay (neutral red); format: cell-based, murine; settings: mouse, RAW 264.7 macrophage cells
Method: as §1

[3] = tested on: R. microsporus preformed biofilm; test: Preformed biofilm assay; format: cell-based, Rhizopus microsporus; settings: for Selectivity Index (SI), Preformed Biofilm: R. microsporus, based on biofilm viability parameter
Method: (§2) For the preformed biofilm assay, cells were cultured as described above in the absence of the compounds. […] An additional incubation of 24 h at 37 °C was performed to evaluate the anti-biofilm activity. Evaluation of both biofilm formation and preformed biofilms was performed using three parameters as previously described. Crystal violet, safranin and XTT assays were used to analyze the overall biomass, extracellular matrix and metabolic activity, respectively.

S. schenckii = tested on: S. schenckii; parameters: method as in PMID 36294569; settings: cited from earlier work
R. oryzae UCP1295 = test: Antifungal drug synergy assay, checkerboard method (FICI); format: cell-based, Rhizopus oryzae; settings: Rhizopus arrhizus, UCP1295, 48 h; drug alone; read-out: MIC50 Alone
Method: Synergistic interactions were evaluated using the checkerboard method according to EUCAST guidelines (EUCAST 2008). R. oryzae conidia (2 × 10^5/mL) were grown in 96-well plates containing supplemented RPMI in the presence of the following selected compounds: […] An inhibition of at least 50% was defined as the cut-off for minimum inhibitory concentration (MIC). Interactions were determined by the fractional inhibitory concentration index (FICI), which was calculated using the following formula: (MIC combined/MIC drug A alone) + (MIC combined/MIC drug B alone). […] The Bliss independence model calculation was performed according to […] colleagues and Zhao and colleagues. The following formula was used to assess drug interaction: […] The results were classified as follows: synergistic effect when Eobs > Eexp; indifference when Eobs = Eexp; antagonistic effect when Eobs < Eexp.

[4] = tested on: R. oryzae preformed biofilm; test: Preformed biofilm assay; format: cell-based, Rhizopus oryzae; settings: for Selectivity Index (SI), Preformed Biofilm: R. oryzae, based on biofilm viability parameter
Method: as §2

A549 cell line = tested on: A549 cell line; parameters: method as in PMID 32560115; settings: cited from earlier work
C. auris = settings: cited from earlier work
Cryptococcus species = settings: cited from earlier work
R. oryzae biofilm = test: Biofilm formation assay; format: cell-based, Rhizopus oryzae; settings: at MIC
Method: (§3) Biofilm formation assay was performed according to Rollin-Pinheiro and colleagues. Biofilms were grown on the surface of sterile polystyrene microplates (96-well). Briefly, serial dilutions of selected compounds were prepared in RPMI 1640 medium (8–¼× MIC) and deposited in 100 µL aliquots in microplate wells. Subsequently, 100 µL containing 10^5 Rhizopus conidia in RPMI 1640 medium was added to each well and incubated for 48 h at 37 °C.
as §2

R. stolonifer biofilm = test: Biofilm formation assay; format: cell-based, Rhizopus stolonifer
Method: as §3, §2

A549 cells = tested on: A549 cells; parameters: method as in PMID 30381356; settings: cited from earlier work
[5] = tested on: R. oryzae, R. microsporus and R. stolonifer biofilm formation; test: Biofilm formation assay, stated over the three species; format: cell-based, Rhizopus species
Method: as §3, §2

HUVEC = tested on: HUVEC; parameters: method as in PMID 30381356; settings: cited from earlier work
R. microsporus biofilm = test: Biofilm formation assay; format: cell-based, Rhizopus microsporus; settings: at MIC
Method: as §3, §2

[6] = tested on: Staphylococcus aureus, Balamuthia mandrillaris, C. albicans, C. glabrata and C. auris; parameters: method as in PMID 23375226, PMID 24568657, PMID 32560115, PMID 22347365; settings: for all of the listed species; cited from earlier work
[7] = A549 alveolar basal epithelial cells, A549, 48 h
[8] = preformed biofilm, 24 h treatment

Structure (SMILES)	CC50 at 48 h [1, 7]	CC50 at 48 h ([1]; HaCaT keratinocyte cells)	CC50 at 48 h [2]	Selectivity Index (SI), Preformed Biofilm [3]	MIC (R. oryzae UCP1295)	IC50 (A549 cell line)	further results
Oc1c(C(Nc2nc3ccccc3s2)c2ccc(OC(F)F)cc2)ccc2cccnc12 (centres unmarked) [MMV019724]	> 50 µM	> 50 µM	> 50 µM	>40	0.63 µM	6.2 µM	concentration that inhibits 50% (S. brasiliensis): 0.25 µM; concentration that inhibits 50% (S. schenckii): 1 µM; Selectivity Index (SI), Preformed Biofilm [4]: >10; concentration able to inhibit 90% of growth (C. auris): 2.5 µM; concentration able to inhibit 90% of growth (Cryptococcus species): 5 µM
CCCCC(CC)CNC(=N)NC(=N)NCCCCCCNC(=N)NC(=N)NCC(CC)CCCC (centres unmarked) [MMV396785, Alexidine, reference compound]	> 50 µM	> 50 µM	> 50 µM		1.25 µM		Selectivity Index (SI), Preformed Biofilm ([3]; listed as Alexidina MMV396785): >20; concentration giving significant decrease in biofilm parameters [3, 8]: 2 × MIC; biofilm biomass, extracellular matrix and viability decreased to (R. oryzae biofilm): 25%; concentration giving reduction in biofilm parameters (R. stolonifer biofilm): ≥ 2 × MIC; Selectivity Index (SI), Preformed Biofilm ([4]; listed as Alexidina MMV396785): >20; concentration giving significant decrease in biofilm parameters [4, 8]: 2 × MIC; concentration that damaged cells (A549 cells): 14.7 µg/mL and 28.89 µM; inhibition of biofilm formation (total biomass, matrix and viability) [5]: ~100%; concentration that damaged cells (HUVEC): 14.7 µg/mL and 28.89 µM; biofilm biomass, extracellular matrix and viability decreased to (R. microsporus biofilm): 25%
CCc1nc(N)nc(N)c1C#CC(C)c1cc(OC)cc(-c2ccncc2)c1 (centres unmarked) [MMV1580844]	> 50 µM	> 50 µM	> 50 µM	>156.3	0.08 µM	> 10 µM	MIC [6]: lower than 100 nM
